# Calls of active or inactive are those of the source.
# What was measured:
# Large T antigen = Large T antigen (Simian virus 40, UniProt P03070); assay type: functional, Betapolyomavirus macacae;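 further: Confirmatory-stage PubChem screen for compounds that inhibit SV40 T antigen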
# [1] = molecular target: Induced myeloid leukemia cell differentiation protein Mcl-1 (Homo sapiens, UniProt Q07820); assay type: functional
# [2] = molecular target: Glyceraldehyde-3-phosphate dehydrogenase (Homo sapiens, UniProt P04406)
# Chain of Glyceraldehyde-3-phosphate dehydrogenase (P04406 whole entry): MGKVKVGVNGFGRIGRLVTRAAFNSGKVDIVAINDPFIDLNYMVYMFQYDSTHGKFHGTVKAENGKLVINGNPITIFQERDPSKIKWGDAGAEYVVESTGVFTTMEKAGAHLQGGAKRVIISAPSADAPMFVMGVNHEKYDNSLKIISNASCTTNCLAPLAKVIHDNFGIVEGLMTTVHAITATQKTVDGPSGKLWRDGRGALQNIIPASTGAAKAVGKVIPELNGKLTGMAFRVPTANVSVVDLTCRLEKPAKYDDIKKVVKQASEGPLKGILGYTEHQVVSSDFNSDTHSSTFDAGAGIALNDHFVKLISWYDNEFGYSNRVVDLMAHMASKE
# [3] = growth suppression of beta-catenin-knockout colon cells, dose response, cell-based, HCT116, human colon tumor (AID 1045); assay type: functional;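 further: HCT116 colon tumor cells with beta catenin knocked out; cells exposed to compound for 60 hours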
# Leucine aminopeptidase = molecular target: T1, Leucine aminopeptidase (Plasmodium falciparum 3D7, UniProt Q8IL11); test: P. falciparum M17LAP inhibitors, primary screen, biochemical, fluorogenic H-Leu-NHMec substrate, 1536-well (AID 1619); assay type: functional
# T1 sequence (Q8IL11 whole entry): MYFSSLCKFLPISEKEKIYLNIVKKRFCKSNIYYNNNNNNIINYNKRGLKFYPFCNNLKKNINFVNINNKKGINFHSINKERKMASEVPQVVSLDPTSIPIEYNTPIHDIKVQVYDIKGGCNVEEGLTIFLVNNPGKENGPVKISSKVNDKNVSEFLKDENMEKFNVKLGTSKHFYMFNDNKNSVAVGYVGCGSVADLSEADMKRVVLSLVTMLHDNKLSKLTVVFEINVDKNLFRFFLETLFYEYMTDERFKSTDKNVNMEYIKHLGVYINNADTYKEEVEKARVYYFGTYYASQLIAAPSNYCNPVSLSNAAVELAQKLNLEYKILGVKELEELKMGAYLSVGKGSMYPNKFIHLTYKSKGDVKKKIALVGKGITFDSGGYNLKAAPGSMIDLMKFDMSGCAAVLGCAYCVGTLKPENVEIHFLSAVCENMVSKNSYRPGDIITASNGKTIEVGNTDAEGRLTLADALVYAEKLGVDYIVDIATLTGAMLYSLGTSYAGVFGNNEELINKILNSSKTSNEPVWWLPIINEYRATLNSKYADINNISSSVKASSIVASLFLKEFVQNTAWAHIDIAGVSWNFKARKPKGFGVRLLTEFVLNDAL
# [4] = molecular target: T2, Replicative DNA helicase DnaB (Mycobacterium tuberculosis, UniProt P9WMR3); test: DnaB intein splicing inhibitors, dose response, biochemical, cell-free fluorescence (AID 449749); assay type: functional
# T2 sequence (P9WMR3 whole entry): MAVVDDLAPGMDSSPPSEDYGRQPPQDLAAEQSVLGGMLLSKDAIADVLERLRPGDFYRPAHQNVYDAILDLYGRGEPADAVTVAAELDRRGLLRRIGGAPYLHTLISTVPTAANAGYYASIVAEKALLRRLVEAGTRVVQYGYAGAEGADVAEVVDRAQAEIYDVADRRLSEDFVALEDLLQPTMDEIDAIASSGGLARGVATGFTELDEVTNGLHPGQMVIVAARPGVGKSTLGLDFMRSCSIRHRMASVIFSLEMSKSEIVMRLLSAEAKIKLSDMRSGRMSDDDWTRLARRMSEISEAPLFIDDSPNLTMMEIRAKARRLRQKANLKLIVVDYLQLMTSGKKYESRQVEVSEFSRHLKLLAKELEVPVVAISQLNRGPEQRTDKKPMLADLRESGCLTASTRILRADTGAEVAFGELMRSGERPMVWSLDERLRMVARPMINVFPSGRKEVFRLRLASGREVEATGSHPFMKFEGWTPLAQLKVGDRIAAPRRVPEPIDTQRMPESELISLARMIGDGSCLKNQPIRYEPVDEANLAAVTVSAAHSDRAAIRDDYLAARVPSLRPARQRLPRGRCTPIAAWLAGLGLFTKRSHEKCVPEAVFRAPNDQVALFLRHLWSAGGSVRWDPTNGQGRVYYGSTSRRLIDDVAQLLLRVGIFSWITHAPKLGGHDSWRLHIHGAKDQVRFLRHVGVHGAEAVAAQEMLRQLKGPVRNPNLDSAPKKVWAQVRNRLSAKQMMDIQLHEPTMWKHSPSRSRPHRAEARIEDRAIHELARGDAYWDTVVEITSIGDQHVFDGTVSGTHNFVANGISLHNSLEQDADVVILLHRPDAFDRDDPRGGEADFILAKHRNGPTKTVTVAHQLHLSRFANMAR
# Protein RecA = molecular target: T3, Protein RecA (Mycobacterium tuberculosis, UniProt P9WHJ3); test: Fluorescence Cell-Free Homogeneous Dose Retest to Identify Inhibitors of RecA-Intein Splicing Activity. [Related pubchem assays (depositor defined):AID2097, AID2223, AID489010, AID492950]; assay type: functional
# T3 sequence (P9WHJ3 whole entry): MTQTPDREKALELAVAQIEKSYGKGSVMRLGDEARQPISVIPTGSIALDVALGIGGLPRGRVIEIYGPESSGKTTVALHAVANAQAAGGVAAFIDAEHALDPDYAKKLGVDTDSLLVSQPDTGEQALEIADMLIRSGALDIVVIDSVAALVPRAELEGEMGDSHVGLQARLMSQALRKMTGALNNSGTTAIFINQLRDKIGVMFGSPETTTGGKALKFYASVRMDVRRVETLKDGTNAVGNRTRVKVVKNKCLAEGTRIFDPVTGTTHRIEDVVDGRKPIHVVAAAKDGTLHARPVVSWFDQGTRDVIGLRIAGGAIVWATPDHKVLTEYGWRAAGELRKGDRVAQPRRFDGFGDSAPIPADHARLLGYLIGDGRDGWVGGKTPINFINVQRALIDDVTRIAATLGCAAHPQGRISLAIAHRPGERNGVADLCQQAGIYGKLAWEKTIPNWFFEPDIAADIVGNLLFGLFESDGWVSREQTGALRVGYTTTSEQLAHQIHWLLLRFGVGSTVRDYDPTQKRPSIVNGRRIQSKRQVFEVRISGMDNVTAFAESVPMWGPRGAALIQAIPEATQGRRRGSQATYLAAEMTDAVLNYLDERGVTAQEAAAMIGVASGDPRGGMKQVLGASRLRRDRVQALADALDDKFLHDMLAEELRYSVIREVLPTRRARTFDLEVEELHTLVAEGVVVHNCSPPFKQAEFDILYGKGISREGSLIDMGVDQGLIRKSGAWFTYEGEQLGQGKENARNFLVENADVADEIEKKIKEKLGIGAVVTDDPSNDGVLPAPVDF
# [5] = molecular target: T4, Polyadenylate-binding protein 1 (Homo sapiens, UniProt P11940); test: PABP1 MLLE–PAM2 interaction inhibitors, dose response, miRNA deadenylation inhibitor project, biochemical, fluorescence polarization, Cy5-PAM2 peptide, secondary (AID 602260); assay type: functional; conditions: read-out: IC50_Mean
# T4 sequence (P11940 whole entry): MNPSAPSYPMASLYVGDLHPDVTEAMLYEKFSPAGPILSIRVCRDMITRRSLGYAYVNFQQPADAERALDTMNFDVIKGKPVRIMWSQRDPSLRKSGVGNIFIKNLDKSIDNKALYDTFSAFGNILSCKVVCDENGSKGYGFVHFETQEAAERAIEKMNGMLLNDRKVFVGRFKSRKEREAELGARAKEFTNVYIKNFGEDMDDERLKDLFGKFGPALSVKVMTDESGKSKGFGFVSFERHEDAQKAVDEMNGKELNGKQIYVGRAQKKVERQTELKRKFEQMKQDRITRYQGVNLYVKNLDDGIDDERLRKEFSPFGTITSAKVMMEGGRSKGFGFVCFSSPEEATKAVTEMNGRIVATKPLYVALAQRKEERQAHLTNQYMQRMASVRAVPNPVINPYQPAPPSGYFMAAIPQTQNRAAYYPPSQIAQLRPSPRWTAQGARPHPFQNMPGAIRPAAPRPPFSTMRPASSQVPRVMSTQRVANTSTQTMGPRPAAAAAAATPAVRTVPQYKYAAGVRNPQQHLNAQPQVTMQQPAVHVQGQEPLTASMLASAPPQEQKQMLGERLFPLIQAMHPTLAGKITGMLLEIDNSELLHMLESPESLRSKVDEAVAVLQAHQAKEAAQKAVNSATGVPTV
# [6] = molecular target: T4, Polyadenylate-binding protein 1; test: PABP1 MLLE–PAM2 binding inhibitor potency, dose response, biochemical, fluorescence polarization, FITC-PAM2 peptide (AID 602259); assay type: functional; conditions: read-out: IC50_Mean
# Chain of Large T antigen (P03070 whole entry): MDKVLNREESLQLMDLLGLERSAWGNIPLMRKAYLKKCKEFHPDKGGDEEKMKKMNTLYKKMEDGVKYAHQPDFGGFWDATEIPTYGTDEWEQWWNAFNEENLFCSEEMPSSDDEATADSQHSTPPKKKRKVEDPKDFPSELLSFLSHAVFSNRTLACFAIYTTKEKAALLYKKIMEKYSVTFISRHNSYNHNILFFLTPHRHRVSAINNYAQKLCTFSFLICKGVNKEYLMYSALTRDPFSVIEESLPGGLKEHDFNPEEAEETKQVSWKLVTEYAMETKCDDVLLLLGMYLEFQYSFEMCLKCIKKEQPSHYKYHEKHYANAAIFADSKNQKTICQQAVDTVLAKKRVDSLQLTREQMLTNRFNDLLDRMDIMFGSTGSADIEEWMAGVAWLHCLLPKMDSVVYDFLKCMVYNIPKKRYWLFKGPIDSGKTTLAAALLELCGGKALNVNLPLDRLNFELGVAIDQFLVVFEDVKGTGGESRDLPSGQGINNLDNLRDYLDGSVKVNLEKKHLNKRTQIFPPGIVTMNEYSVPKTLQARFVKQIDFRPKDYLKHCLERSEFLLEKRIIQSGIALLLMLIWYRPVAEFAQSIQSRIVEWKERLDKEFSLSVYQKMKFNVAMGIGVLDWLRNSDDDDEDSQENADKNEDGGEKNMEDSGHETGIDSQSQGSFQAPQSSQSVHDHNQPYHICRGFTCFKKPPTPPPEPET
# Chain of Induced myeloid leukemia cell differentiation protein Mcl-1 (Q07820 whole entry): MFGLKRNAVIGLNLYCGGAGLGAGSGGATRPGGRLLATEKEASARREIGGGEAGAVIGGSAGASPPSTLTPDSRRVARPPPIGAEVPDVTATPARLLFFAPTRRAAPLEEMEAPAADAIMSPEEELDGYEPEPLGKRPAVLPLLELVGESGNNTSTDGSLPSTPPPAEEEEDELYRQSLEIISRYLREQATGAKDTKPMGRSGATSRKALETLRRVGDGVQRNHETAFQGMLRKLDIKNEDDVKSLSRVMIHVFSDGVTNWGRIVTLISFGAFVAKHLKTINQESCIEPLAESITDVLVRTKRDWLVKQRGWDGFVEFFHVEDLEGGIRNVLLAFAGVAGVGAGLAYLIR
SMILES,IC50 (Large T antigen),IC50 [2],further results
N#CC1=C2SCN(Cc3ccco3)CN2C(=O)CC1c1ccc(Cl)cc1 (stereo not drawn),> 100 µM (active),,
Cc1nc(N)sc1-c1csc(Nc2ncccn2)n1,,,IC50 [1]: 3.69 µM (active)
O=C(O)/C=C/C(=O)Nc1ccc2c(c1)C(=O)c1ccccc1C2=O,,> 100 µM (not active),
Cc1cc(NC(=O)CN2CCN(c3ccc(O)cc3)CC2)no1,9.24 µM (active),,EC50 [3]: 31.9 µM (active)
COc1ccc(N2CCN(C3=C(Cl)C(=O)N(c4ccc(C(F)(F)F)cc4)C3=O)CC2)cc1,,> 12.5 µM (inconclusive),
CCCc1n[nH]c2c1C(CCc1ccccc1)C(C#N)=C(N)O2 (stereo not drawn),,,IC50 (Leucine aminopeptidase): 55.7 µM (active); AC50 [4]: 6.33 µM (active); EC50 (Protein RecA): 7.93 µM (active)
COc1cccc(C(=O)Nc2ccc3c(c2)n(C)c(=O)n3C)c1,> 100 µM (active),,
Cc1ccc(C(=O)C2CCN(CC(=O)Nc3ccc(N(C)C)cc3)CC2)cc1,14.5 µM (active),,
COc1ccc(N2CCN(C3=C(Cl)C(=O)N(c4ccnc(Cl)c4)C3=O)CC2)cc1,,> 50 µM (inconclusive),
NC(=O)N/N=C/c1c(Sc2nnnn2-c2ccccc2)nc2ccccn2c1=O,60.5 µM (active),,
CCc1c(O)nc(SCC(=O)Nc2ccccc2)n(C(C)CC)c1=O (stereo not drawn),,,IC50 (Leucine aminopeptidase): 17.8 µM (active); IC50 [5]: > 66 µM (inactive); IC50 [6]: > 66 µM (inactive)
O=C(O)CN1C(=O)S/C(=C\c2ccc(O)cc2)C1=O,,> 100 µM (not active),
O=C1c2c(O)cc(O)cc2O[C@H](c2ccc(O)c(O)c2)[C@H]1O [(+)-TAXIFOLIN],32 µM (active),,

# — ChEMBL document CHEMBL1201862, “PubChem BioAssay data set” (2004)
